Test [1] relates to transplanted EGFP-labeled neuroblastoma cells. As to the kind of experiment: Primary tumor derived allograft (PDA) neuroblastoma model in zebrafish embryos. In kind it is in vivo. Particulars: 100 μM in the fish water, five days. The protocol:
The anti-tumor activity of Pin1-3 was then assessed on the maintenance of fully transformed neuroblastoma cells in vivo in primary tumor derived allograft (PDA) models constructed in transplanted zebrafish embryos. EGFP-labeled neuroblastoma cells were dissected from 4-month-old Tg(dβh:MYCN;dβh:EGFP) donor zebrafish, disaggregated, counted and 200-400 GFP-labeled tumor cells were injected intravenously into the Duct of Cuvier (common cardinal vein) of 2 dpf zebrafish embryos [He et al., J Pathol 2012, 227:431-445]. One day after injection, 100 μM Pin1-3 or the DMSO control was added to the fish water containing embryos bearing the transplanted EGFP-labeled neuroblastoma cells. Five days later, the area of the EGFP-labeled tumor mass in treated embryos was quantified.

Test [2] has as its system Pin1-knockout pancreatic cancer cells. Kind of test: Organoid growth in Matrigel, Pin1-knockout PATU-8988T. In kind it is cell-based. The following applies: 1 μM, 9 days. The protocol:
(§1) As three dimensional (3D) organoid models can reflect in vivo results better than monolayer cell culture [Baker et al., Trends Cancer Res 2016, 2:176-190], the anti-proliferative activity of Pin1-3 in PATU-8988T was further evaluated in wild-type or Pin1-knockout cells grown as organoids in Matrigel™ droplets. Cells were treated for 9 days with Pin1-3 (or Pin1-3-AcA or vehicle as a control), replenishing the compound in media every 3 days.

Test [3] concerns PDX (patient-derived xenograft) tumors. As to the kind of experiment: PDX orthotopic xenograft mouse model. In kind it is in vivo. The following applies: IP 2 or 4 mg/kg every day, 6 weeks. The protocol: 4×2 mm PDX (patient-derived xenograft) tumors were transplanted into NSC mouse pancreas (orthotopic xenografts). After 1 week of the transplantation, treatment of mice with Pin1-3 began. Mice were treated (IP) with Pin1-3 diluted solution (as a control), or 2 or 4 mg/kg […] every day. Tumor size were measured and mice were sacrificed after 6 weeks to collect tumor tissue (n=5).

The target in test [4] is T1, Pin1 (Mus musculus, UniProt Q9QUR7).
T1 construct: from tissue; host or cells: mouse spleen
T1 sequence (Q9QUR7 whole entry): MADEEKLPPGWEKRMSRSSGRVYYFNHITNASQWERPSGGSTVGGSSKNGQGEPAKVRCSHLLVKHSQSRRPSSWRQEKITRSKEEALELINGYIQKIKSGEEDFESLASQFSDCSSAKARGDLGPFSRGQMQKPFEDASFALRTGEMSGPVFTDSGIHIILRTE
As to the kind of experiment: In vivo Pin1 engagement, spleen competition pull-down. Also noted: species or system mice. The protocol: The in vivo engagement of Pin1 by Pin1-3 was then assessed using Pin1-3-DTB. Mice were treated with either vehicle, 10 mg/kg or 20 mg/kg Pin1-3 by oral gavage (QD) for 3 days, followed by lysis of the spleens for a competition pull-down experiment.

The test system of test [5] is wild-type 8988T pancreatic cancer cells. As to the kind of experiment: Organoid growth in Matrigel, wild-type PATU-8988T. In kind it is cell-based. The following applies: 1 μM, 9 days. The protocol:
as §1

Test [6] relates to 8988T pancreatic adenocarcinoma cells. As to the kind of experiment: Prolonged-treatment cell growth, wild-type 8988T. In kind it is cell-based. The following applies: 1 μM, 6-8 days. How it is done: (§2) The ability of Pin1-3 treatment to induce more pronounced anti-proliferative effects after prolonged treatment (6-8 days) was then assessed. In order to ensure that target engagement was maintained for the duration of the experiment, Pin1-3 was replenished in fresh media every 48 hours.
The effect of Pin1-binding compounds on 8988T pancreatic adenocarcinoma cells was assessed by incubating cells with 1 μM Pin1-3, and evaluating cell growth relative to cells incubated with vehicle (DMSO) alone. In order to confirm that the effect of Pin1-3 is mediated by Pin1, the experiment was repeated using Pin1 knockout cells.

Test [7] has as its system cysteine targets throughout the proteome, MDA-MB-231 cells. As to the kind of experiment: rdTOP-ABPP profiling of reactive cysteines. Particulars: 5 μM.
Protocol: (§3) MDA-MB-231 cells were cultured at 37° C. under a 5% CO2 atmosphere in DMEM culture medium supplemented with 10% FBS and 1% PS. Cells were grown to 70% confluence and incubated with DMSO or 5 μM Pin1-3 for 2 hours with serum-free medium. Cells were harvested, lysed by sonication in ice-cold PBS containing 0.1% Triton™ X-100 and centrifuged at 100,000 g for 30 minutes to remove cell debris. Then protein concentrations were determined by BCA protein assay. Proteomes were normalized to 2 mg/ml in 1 ml for each sample. Each of the DMSO and Pin1-3 incubated proteomes was treated with 100 μM iodoacetamide alkyne for 1 hour at room temperature. […] Finally, the samples were prepared, analyzed on LC-MS/MS and quantified according to procedures described in Yang et al. [Anal Chem 2018, 90:9576-9582]. […] LC-MS/MS data was analyzed by ProLuCID™ algorithm (as described by Xu et al. [J Proteomics 2015, 129:16-24]) with static modification of cysteine (+57.0215 Da) and variable oxidation of methionine (+15.9949 Da). […] The ratios were quantified by CImage™ software [Weerapana et al., Nature 2010, 468, 790-795].
(§4) This variant of the isoTOP-ABPP technique enables the site-specific quantification of cysteine binding by label-free covalent inhibitors. […] After enrichment on beads, the peptides were isotopically derivatized by triplex reductive dimethylation, cleaved and analyzed via LC-MS/MS analysis.
The target in test [8] is cysteine targets throughout the proteome, MDA-MB-231 cells (Homo sapiens, UniProt Q13526). Kind of test: rdTOP-ABPP profiling of reactive cysteines. The following applies: 5 μM, two biological replicates.
cysteine targets throughout the proteome, MDA-MB-231 cells (Homo sapiens, UniProt Q13526), sequence (Q13526 whole entry): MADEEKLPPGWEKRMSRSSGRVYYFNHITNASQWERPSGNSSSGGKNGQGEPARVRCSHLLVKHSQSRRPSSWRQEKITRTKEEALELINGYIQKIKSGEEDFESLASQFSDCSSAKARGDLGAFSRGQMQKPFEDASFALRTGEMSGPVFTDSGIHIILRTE
Protocol: as §3, §4
In the next test the test system is germinal centers. As to the kind of experiment: Germinal center size after NP-OVA immunization. Particulars: IP 40 mg/kg on days 7 and 9 post immunization, day 11. In kind it is in vivo, mice. The protocol: 12 wild-type mice were immunized with OVA coupled to the hapten 4-hydroxy-3-nitrophenylacetyl (NP-OVA) precipitated in alum. The mice were injected with two doses of Pin1-3 (IP; 40 mg/kg) or vehicle on days 7 and 9 post immunization, and on day 11 the mice were sacrificed and germinal centers size was assessed in lymph nodes by flow cytometry.

In test [9] the target is T2, Pin1 (Homo sapiens, UniProt Q13526).
T2 construct: endogenous in cells; host or cells: patient-derived PDAC cells
T2 sequence (Q13526 whole entry): as above
As to the kind of experiment: Pin1 levels in PDAC cells (Western blot). Particulars: treated for 3 days. In kind it is cell-based. How it is done: Pancreatic ductal adenocarcinoma (PDAC) cells (derived from a human patient) were treated with Pin1-3 for 3 days. PDAC organoids were treated with Pin1-3 for 7 days (day 7 to day 14).
For orientation: In western blotting, separated proteins are transferred to a membrane and probed.

In test [10] the test system is Kuramochi ovarian carcinoma cells. As to the kind of experiment: Prolonged-treatment cell growth, Kuramochi. Particulars: 1 or 2.5 μM. In kind it is cell-based. The protocol:
as §2

A short description of test [11]: Thiol reactivity assay (DTNB). In kind it is physicochemical. Particulars: 200 μM compound, pH 7.4, 37° C.

Regarding `CC(C)(C)CN(C(=O)CCl)C1CCS(=O)(=O)C1` (centres unmarked) [Pin1-3, 2-chloro-N-(sulfolan-3-yl)-N-neopentylacetamide], the EGFP-labeled tumor mass result in test [1] is “tumor masses decreased in size”. For the same molecule, the Organoid growth entry is “no effect” in test [2] and “significantly retarded organoid growth” in test [5]. For the same molecule, the PDX tumor growth entry in test [3] is given as “inhibited PDX tumor growth in mice in a dose-dependent manner”. Besides, the “Mice with effective Pin1 engagement” value at Pin1 [4] (10 mg/kg oral gavage QD for 3 days) is given as 1 of the 3 mice; on Pin1 [4] (20 mg/kg oral gavage QD for 3 days) it was “all 3 mice”. The “Cell viability / growth” value in test [6] is on record as “reduced pancreatic cancer cell viability”. The “Competition ratio R, all other identified cysteines” value in test [7] is “below 2.5”. Besides, in test [8], the “Competition ratio R, Cys113 of Pin1” value worked out at 15. Also, the “Germinal centers size (FAS^Hi CD38^− GC cells, flow cytometry)” value in the test on germinal centers is “significantly larger germinal centers”. Moreover, the “Pin1 levels in PDAC cells” value at Pin1 [9] was “reduced Pin1 in PDAC cells in a dose-dependent manner”. In addition, the Cell growth result in test [10] is on record as “long-term inhibition”. For the same molecule, the “Reactivity Log k” value in test [11] is −7.43. Besides, the Reactivity k in test [11] came out at 3.73e-08 M⁻¹ s⁻¹.

Values taken from patent publication US20210332024A1, “MODULATORS OF PIN1 ACTIVITY AND USES THEREOF” (Yeda Research and Development Co. Ltd., priority 2019, published 2021).
